Values of other authors, collected in patent US20160264934A1, “METHODS FOR MODULATING AND ASSAYING m6A IN STEM CELL POPULATIONS” (THE GENERAL HOSPITAL CORPORATION, priority 2015, published 2016).

Target: ALKBH5 (Homo sapiens, UniProt Q6P6C2)
Conditions: HPLC-based assays

Chain of ALKBH5 (Q6P6C2 whole entry, species assumed): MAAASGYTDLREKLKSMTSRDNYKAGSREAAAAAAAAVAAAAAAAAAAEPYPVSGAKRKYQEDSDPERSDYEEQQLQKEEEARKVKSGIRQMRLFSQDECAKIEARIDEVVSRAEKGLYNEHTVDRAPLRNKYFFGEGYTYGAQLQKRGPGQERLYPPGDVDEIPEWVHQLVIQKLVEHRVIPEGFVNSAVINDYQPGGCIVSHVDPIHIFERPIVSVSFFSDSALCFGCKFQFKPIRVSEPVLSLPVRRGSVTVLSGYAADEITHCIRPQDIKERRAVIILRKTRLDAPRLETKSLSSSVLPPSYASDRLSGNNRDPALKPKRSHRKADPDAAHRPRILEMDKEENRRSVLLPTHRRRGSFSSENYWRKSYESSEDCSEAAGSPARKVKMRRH

- inhibition of ALKBH5: no inhibition
Compound: Cc1ccc(Cl)c(Nc2ccccc2C(=O)O)c1Cl [meclofenamic acid]
